# From BindingDB's records for patent US11547697 (Millennium Pharmaceuticals, 2023)
# Columns and labels:
# [1] = target: T1, Phosphatidylinositol 4,5-bisphosphate 3-kinase catalytic subunit delta isoform (Homo sapiens, UniProt O00329); experiment: Inhibition Assay of PI3K
# T1 sequence (O00329 whole entry): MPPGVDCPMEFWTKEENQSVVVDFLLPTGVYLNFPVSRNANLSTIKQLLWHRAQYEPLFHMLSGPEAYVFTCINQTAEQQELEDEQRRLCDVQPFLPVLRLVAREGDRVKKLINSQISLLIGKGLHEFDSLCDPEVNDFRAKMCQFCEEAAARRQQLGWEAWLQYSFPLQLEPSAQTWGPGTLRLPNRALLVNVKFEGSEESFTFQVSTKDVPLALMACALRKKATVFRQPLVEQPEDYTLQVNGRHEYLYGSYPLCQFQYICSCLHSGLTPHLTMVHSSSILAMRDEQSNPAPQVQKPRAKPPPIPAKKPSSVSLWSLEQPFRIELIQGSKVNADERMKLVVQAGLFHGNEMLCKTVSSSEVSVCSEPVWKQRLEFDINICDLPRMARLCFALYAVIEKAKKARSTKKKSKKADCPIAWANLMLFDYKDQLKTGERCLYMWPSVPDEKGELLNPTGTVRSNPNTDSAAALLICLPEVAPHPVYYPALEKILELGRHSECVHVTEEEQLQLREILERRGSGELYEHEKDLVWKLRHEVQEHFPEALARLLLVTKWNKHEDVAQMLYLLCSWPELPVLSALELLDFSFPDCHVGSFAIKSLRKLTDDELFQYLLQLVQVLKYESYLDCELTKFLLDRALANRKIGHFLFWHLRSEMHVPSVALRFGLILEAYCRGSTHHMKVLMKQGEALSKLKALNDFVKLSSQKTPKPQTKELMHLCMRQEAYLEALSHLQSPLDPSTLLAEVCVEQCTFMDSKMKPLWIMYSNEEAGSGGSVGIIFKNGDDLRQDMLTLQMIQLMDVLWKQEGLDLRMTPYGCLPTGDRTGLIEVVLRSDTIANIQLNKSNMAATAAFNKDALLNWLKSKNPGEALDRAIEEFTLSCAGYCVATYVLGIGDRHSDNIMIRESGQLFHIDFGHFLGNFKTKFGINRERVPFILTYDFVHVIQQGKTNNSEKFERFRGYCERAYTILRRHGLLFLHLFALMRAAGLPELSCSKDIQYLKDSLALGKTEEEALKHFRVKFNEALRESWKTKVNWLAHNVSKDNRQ
# Experimental: (§1) An exemplary system is PI 3-Kinase (human) HTRF Assay from Upstate. […] Briefly, the assay is a time resolved FRET assay that indirectly measures PIP3 product formed by the activity of a PI3-K. The kinase reaction is performed in a microtitre plate (e.g., a 384 well microtitre plate). The total reaction volume is approximately 20 ul per well. In the first step, each well receives 2 ul of test compound in 20% dimethylsulphoxide resulting in a 2% DMSO final concentration. Next, approximately 14.5 ul of a kinase/PIP2 mixture (diluted in 1× reaction buffer) is added per well for a final concentration of 0.25-0.3 ug/ml kinase and 10 μM PIP2. The plate is sealed and incubated for 15 minutes at room temperature. To start the reaction, 3.5 ul of ATP (diluted in 1× reaction buffer) is added per well for a final concentration of 10 μM ATP. The plate is sealed and incubated for 1 hour at room temperature. The reaction is stopped by adding 5 ul of Stop Solution per well and then 5 ul of Detection Mix is added per well. The plate is sealed, incubated for 1 hour at room temperature, and then read on an appropriate plate reader.
# [2] = target: Phosphatidylinositol 4,5-bisphosphate 3-kinase catalytic subunit beta isoform (Homo sapiens, UniProt P42338); experiment: Inhibition Assay of PI3K
# Chain of Phosphatidylinositol 4,5-bisphosphate 3-kinase catalytic subunit beta isoform (P42338 whole entry, canonical isoform): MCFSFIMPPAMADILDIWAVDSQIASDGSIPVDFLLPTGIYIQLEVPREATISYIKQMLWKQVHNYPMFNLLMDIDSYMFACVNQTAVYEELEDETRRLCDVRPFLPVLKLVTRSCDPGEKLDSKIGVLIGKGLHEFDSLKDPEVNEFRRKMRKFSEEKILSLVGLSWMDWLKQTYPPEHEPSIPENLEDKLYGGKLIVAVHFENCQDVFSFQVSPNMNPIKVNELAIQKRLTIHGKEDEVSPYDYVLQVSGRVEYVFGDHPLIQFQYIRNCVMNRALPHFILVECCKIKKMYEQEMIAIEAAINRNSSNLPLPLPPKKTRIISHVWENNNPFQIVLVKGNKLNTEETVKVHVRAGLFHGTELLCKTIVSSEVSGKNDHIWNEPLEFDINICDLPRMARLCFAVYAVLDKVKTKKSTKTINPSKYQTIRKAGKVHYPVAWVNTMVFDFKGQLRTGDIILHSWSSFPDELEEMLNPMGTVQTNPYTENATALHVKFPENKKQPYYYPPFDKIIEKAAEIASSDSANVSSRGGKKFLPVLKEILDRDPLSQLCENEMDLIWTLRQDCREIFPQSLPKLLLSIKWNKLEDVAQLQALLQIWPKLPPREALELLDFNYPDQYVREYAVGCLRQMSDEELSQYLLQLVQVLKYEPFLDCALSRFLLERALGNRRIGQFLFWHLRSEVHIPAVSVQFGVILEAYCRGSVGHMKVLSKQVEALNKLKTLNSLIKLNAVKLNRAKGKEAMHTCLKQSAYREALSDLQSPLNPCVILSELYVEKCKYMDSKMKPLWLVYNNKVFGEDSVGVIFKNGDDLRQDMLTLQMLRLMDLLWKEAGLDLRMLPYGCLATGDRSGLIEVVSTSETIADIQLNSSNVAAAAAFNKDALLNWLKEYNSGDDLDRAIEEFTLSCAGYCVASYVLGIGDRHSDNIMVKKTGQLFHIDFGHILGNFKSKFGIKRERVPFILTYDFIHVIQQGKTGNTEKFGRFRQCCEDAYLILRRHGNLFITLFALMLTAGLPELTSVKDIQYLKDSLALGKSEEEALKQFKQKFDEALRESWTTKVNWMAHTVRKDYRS
# Experimental: as §1
SMILES,IC50 [1] [µM],IC50 [2] [µM]
"Nc1nc2cc(-c3ccc4ncc(C(=O)N5CC[C@H](F)C5)n4c3)ccc2o1 [US11547697, Compound 476]",> 10,> 10
"Nc1nc2ccc(-c3ccc4ncc(N5CCOCC5)nc4c3)cc2s1 [US11547697, Compound 114]",> 10,> 10
"NC(=O)[C@H]1CCCN1C(=O)c1cnc2ccc(-c3ccc4oc(N)nc4c3)cn12 [US11547697, Compound 260]",> 10,> 10
"Nc1nc2cc(-c3ccc4ncc(C(=O)N5CCC(N6CC(F)(F)C6)C5)n4c3)ccc2o1 (configuration not stated) [US11547697, Compound 498]",> 10,> 10
"Nc1nc2cc(-c3ccc4ncc(C(=O)N5CCC(F)(F)CC5)n4c3)ccc2o1 [US11547697, Compound 501]",> 10,> 10
"Nc1nc2cc(-c3ccc4ncc(C(=O)N5CCC(F)(F)C5)n4c3)ccc2o1 [US11547697, Compound 471]",> 10,> 10
"CO[C@@H]1CCN(C(=O)c2cnc3ccc(-c4ccc5oc(N)nc5c4)cn23)C1 [US11547697, Compound 464]",> 10,> 10
"Nc1nc2cc(-c3ccc4ncc(N5CCNCC5=O)nc4c3)ccc2o1 [US11547697, Compound 389]",> 10,> 10
"NC(=O)[C@@H]1CCCN1C(=O)C1CN(c2cnc3ccc(-c4ccc5oc(N)nc5c4)cc3n2)C1 [US11547697, Compound 283]",> 10,> 10
"Nc1nc2cc(-c3cc4nccc(-c5ccncc5)c4s3)ccc2o1 [US11547697, Compound 14]",> 10,> 10
"Nc1nc2cc(-c3ccc4ncc(C(=O)N5CCC(F)CC5)n4c3)ccc2o1 [US11547697, Compound 503]",> 10,> 10
"Nc1nc2cc(-c3ccc4ncc(C(=O)N5CCN(CCO)CC5)n4c3)ccc2o1 [US11547697, Compound 148]",> 10,> 10
"Nc1nc2cc(-c3ccc4ncc(N5CCN(CC(F)(F)F)CC5)nc4c3)ccc2o1 [US11547697, Compound 395]",> 10,> 10
"Cc1ccc(-c2cnc3ccc(-c4ccc5oc(N)nc5c4)cc3n2)cn1 [US11547697, Compound 194]",> 10,> 10
"Nc1nc2cc(-c3ccc4ncn(C5CC5)c(=O)c4c3)ccc2o1 [US11547697, Compound 254]",> 10,> 10
"N#Cc1cnc2ccc(-c3ccc4oc(N)nc4c3)cc2c1 [US11547697, Compound 93]",> 10,> 10
"C[C@H]1CCCN1C(=O)c1cnc2ccc(-c3ccc4oc(N)nc4c3)cn12 [US11547697, Compound 482]",,> 10
"CS(=O)(=O)N1CCN(C(=O)c2cnc3ccc(-c4ccc5oc(N)nc5c4)cn23)CC1 [US11547697, Compound 112]",,> 10
"O=C(c1cnc2ccc(-c3cncc(NS(=O)(=O)c4ccccc4)c3)cn12)N1CCOCC1 [US11547697, Compound 424]",,> 10
"COc1ncc(-c2ccc3ncc(C(=O)N4CCOCC4)n3c2)c2cn[nH]c12 [US11547697, Compound 517]",,> 10
"Nc1nc2cc(-c3ccc4ncc(C(=O)Nc5cccnc5)n4c3)ccc2o1 [US11547697, Compound 190]",,> 10
"Nc1nc2cc(-c3ccc4ncc(C(=O)N5C6CCC5COC6)n4c3)ccc2o1 [US11547697, Compound 480]",,> 10
"CC(=O)Nc1ncc(-c2ccc3oc(N)nc3c2)s1 [US11547697, Compound 235]",,> 10
"O=C(c1cnc2ccc(-c3cncc(NS(=O)(=O)c4ccc(F)cc4F)c3)cn12)N1CCOCC1 [US11547697, Compound 425]",,> 10
"Nc1ncnc2ccc(-c3ccc4nccc(-c5ccncc5)c4c3)cc12 [US11547697, Compound 8]",,> 10
"O=C(c1cnc2ccc(-c3cccc(NS(=O)(=O)c4ccc(F)cc4F)c3)cn12)N1CCOCC1 [US11547697, Compound 454]",,> 10
